Blank lines part the entries; values can stand above or below the molecule they belong to.
Test: ^13C breath test, intravenous administration (femoral vein), diabetic vs normal rats
Assay type: in vivo, rat
Excerpt: As test animals, male Sprague-Dawley strain (SD) neonatal rats were purchased from Nippon Charles River K. K. together with their lactating rats. […] Insulin secretion-deficient type diabetes was generated by administering streptozotocin (STZ) to neonatal rats (“Saibokogaku (Cell Engineering)”, Extra Issue, medical Experiment Manual Series, Strategy for Study of Diabetes, edited by Susumu Seino and Yoshikazu Oka, published by Shujunsha Co., Japan). STZ was subcutaneously administered to 2-day-old rats at a dose of 90 mg/kg. […] Two days after the administration, blood was collected by cardiac puncture, and the casual blood sugar level of each rat was measured with Terumo […] (blood sugar measurement set). […] Breath tests were carried out according to the method as described in (2)-1 or (2)-2 below on diabetic rats prepared in (1) above (8-10-week-old) and normal rats (8-10-week-old). […] A blood sample was collected from the tail vein, and its sugar level was determined using Terumo […] (blood sugar measurement set). […] Fine Science Tools Inc.).

[1] = diabetic rats, 10 mg/kg from the femoral vein, Example 25
[2] = normal rats, 10 mg/kg from the femoral vein, Example 25
[3] = diabetic rats (n=2), 20 mg/kg from the femoral vein, Example 18
[4] = normal rats, 20 mg/kg from the femoral vein, Example 18
[5] = diabetic rats, 20 mg/kg from the femoral vein, Example 22
[6] = normal rats, 20 mg/kg from the femoral vein, Example 22
[7] = diabetic rats, 20 mg/kg from the femoral vein, Example 8
[8] = normal rats, 20 mg/kg from the femoral vein, Example 8
[9] = diabetic rats, 50 mg/kg from the femoral vein, Example 16
[10] = normal rats, 50 mg/kg from the femoral vein, Example 16
[11] = diabetic rats, 50 mg/kg from the femoral vein, Example 27
[12] = normal rats, 50 mg/kg from the femoral vein, Example 27
[13] = diabetic rats, 20 mg/kg from the femoral vein, Example 23
[14] = normal rats, 20 mg/kg from the femoral vein, Example 23
[15] = diabetic rats, 20 mg/kg from the femoral vein, Example 11
[16] = normal rats, 20 mg/kg from the femoral vein, Example 11
[17] = diabetic rats, 50 mg/kg from the femoral vein, Example 14
[18] = normal rats, 50 mg/kg from the femoral vein, Example 14
[19] = diabetic rats, 5 mg/kg from the femoral vein, Example 28
[20] = normal rats, 5 mg/kg from the femoral vein, Example 28
[21] = diabetic rats, 50 mg/kg from the femoral vein, Example 31
[22] = normal rats, 50 mg/kg from the femoral vein, Example 31
[23] = diabetic rats, 10 mg/kg from the femoral vein, Example 15
[24] = normal rats, 10 mg/kg from the femoral vein, Example 15
[25] = diabetic rats, 30 mg/kg from the femoral vein, Example 32
[26] = normal rats, 30 mg/kg from the femoral vein, Example 32
[27] = diabetic rats, 50 mg/kg from the femoral vein, Example 35
[28] = normal rats, 50 mg/kg from the femoral vein, Example 35
[29] = diabetic rats, 50 mg/kg, printed as administered orally from the femoral vein, Example 19
[30] = normal rats, 50 mg/kg, printed as administered orally from the femoral vein, Example 19

SMILES: O=C[13C@H](O)[C@@H](O)[C@@H](O)[C@H](O)CO [2-^13C-galactose]
time course of Δ^13C values (‰) (rat, in vivo, 100 mg/kg): continued increasing up to 20 min

SMILES: O=C([13CH2]O)[C@@H](O)[C@H](O)[C@H](O)CO [1-^13C-fructose]
time course of Δ^13C values (‰) (rat, in vivo, 100 mg/kg): continued increasing up to 20 min

SMILES: [13CH3]C(O)C(=O)[O-].[Na+] (stereo not drawn) [3-^13C-sodium lactate]
^13C value (‰) at 10 min after the administration [11]: 202.08±6.05 ‰
slope from 2 to 4 min after the administration [11]: 96.83±17.69 ‰/2 min
time course of Δ^13C values (‰) [11]: increased sharply up to about 7 min after the administration, but thereafter decreased gradually up to 20 min
^13C value (‰) at 10 min after the administration [12]: 130.30±11.47 ‰
slope from 2 to 4 min after the administration [12]: 60.69±6.80 ‰/2 min
time course of Δ^13C values (‰) [12]: increased sharply up to about 5 min after the administration of 3-^13C-sodium lactate, and thereafter increased gradually up to 20 min

SMILES: O=[13CH][C@H](O)[C@@H](O)[C@@H](O)[C@H](O)CO [1-^13C-galactose]
time course of Δ^13C values (‰) (rat, in vivo, 100 mg/kg): continued increasing up to 30 min

SMILES: N=C(N)NCCC[C@H](N)[13C](=O)O [1-^13C-arginine]
slope from 2 to 7 min after the administration [17]: 146.90±18.97 ‰/5 min
time course of Δ^13C values (‰) [17]: increased up to about 12 min after the administration, but thereafter decreased gradually up to 20 min
Δ^13C value (‰) at 10 min after the administration [17]: 192.40±30.23 ‰
slope from 2 to 7 min after the administration [18]: 75.02±10.01 ‰/5 min
time course of Δ^13C values (‰) [18]: continued increasing up to 20 min
Δ^13C value (‰) at 10 min after the administration [18]: 111.68±14.15 ‰

SMILES: O=C(O)CC(O)(C[13C](=O)O)[13C](=O)O (stereo not drawn) [1,6-^13C-citric acid]
slope from 10 to 14 min after the administration [19]: −10.45±1.30 ‰/4 min
Δ^13C value (‰) at 20 min after the administration [19]: 54.38±3.34 ‰
slope from 10 to 14 min after the administration [20]: −5.81±0.92 ‰/4 min
Δ^13C value (‰) at 20 min after the administration [20]: 67.49±1.82 ‰

SMILES: CCCCCCCCCCCCCCC[13C](=O)O [1-^13C-palmitic acid]
slope from 10 to 20 min after the administration [21]: −4.40±2.21 ‰/10 min
time course of Δ^13C values (‰) [21]: increased sharply up to about 5 min after the administration, but thereafter decreased gradually up to 20 min
slope from 10 to 20 min after the administration [22]: 1.43±1.33 ‰/10 min
time course of Δ^13C values (‰) [22]: continued increasing up to 20 min

SMILES: N[C@@H](Cc1c[nH]c2ccccc12)[13C](=O)O [1-^13C-tryptophan]
slope from 10 to 15 min after the administration [23]: 4.46±0.49 ‰/5 min
time course of Δ^13C values (‰) [23]: continued increasing up to 20 min
Δ^13C value (‰) at 20 min after the administration [23]: 19.42±4.37 ‰
slope from 10 to 15 min after the administration [24]: 1.20±0.93 ‰/5 min
time course of Δ^13C values (‰) [24]: continued increasing up to 20 min
Δ^13C value (‰) at 20 min after the administration [24]: 8.10±0.77 ‰

SMILES: N[C@@H](CCC(=O)O)[13C](=O)O [1-^13C-glutamic acid]
time course of Δ^13C values (‰) (rat, in vivo, 10 mg/kg): increased sharply up to about 4 min after the administration of 1-^13C-glutamic acid, but thereafter decreased gradually up to 20 min

SMILES: CCCCCCC[13C](=O)O [1-^13C-octanoic acid]
slope from 10 to 20 min after the administration [25]: −20.55±7.75 ‰/10 min
time course of Δ^13C values (‰) [25]: increased sharply up to about 5 min after the administration, but thereafter decreased gradually up to 20 min
slope from 10 to 20 min after the administration [26]: −4.76±4.41 ‰/10 min
time course of Δ^13C values (‰) [26]: increased sharply up to about 5 min after the administration of 1-^13C-octanoic acid, and thereafter remained at an almost constant level up to 20 min

SMILES: OC[13CH](O)CO [2-^13C-glycerol]
slope from 2 to 7 min after the administration [27]: 62.72±3.22 ‰/5 min
time course of Δ^13C values (‰) [27]: increased sharply up to about 8 min after the administration, and thereafter increased gradually up to 20 min
Δ^13C value (‰) at 20 min after the administration [27]: 112.44±5.12 ‰
slope from 2 to 7 min after the administration [28]: 16.99±1.61 ‰/5 min
time course of Δ^13C values (‰) [28]: continued increasing gradually up to 20 min after the administration of 2-^13C-glycerol, and thereafter remained at an almost constant level
Δ^13C value (‰) at 20 min after the administration [28]: 54.77±4.23 ‰

SMILES: Cl.NCCCC[C@H](N)[13C](=O)O [1-^13C-lysine hydrochloride]
slope from 15 to 20 min after the administration [29]: −26.64±5.36 ‰/5 min
time course of Δ^13C values (‰) [29]: increased up to about 10 min after the administration, but thereafter decreased gradually up to 20 min
Δ^13C value (‰) at 8 min after the administration [29]: 181.53±23.82 ‰
slope from 15 to 20 min after the administration [30]: −4.58±6.91 ‰/5 min
time course of Δ^13C values (‰) [30]: increased up to about 11 min after the administration of 1-^13C-lysine hydrochloride, and thereafter remained at an almost constant level up to 20 min
Δ^13C value (‰) at 8 min after the administration [30]: 96.95±27.48 ‰

More lines, main results first:

slope from 3 to 8 min after the administration [1]: −53.79±11.42 ‰/5 min
Δ^13C value (‰) at 3 min after the administration [1]: 172.66±8.65 ‰
slope from 3 to 8 min after the administration [2]: −8.13±10.84 ‰/5 min
Δ^13C value (‰) at 3 min after the administration [2]: 126.56±13.45 ‰
SMILES: N[C@@H](CC(=O)O)[13C](=O)O [1-^13C-aspartic acid]
time course of Δ^13C values (‰) [1]: increased sharply up to about 2 min after the administration of 1-^13C-aspartic acid, but thereafter decreased gradually up to 20 min
time course of Δ^13C values (‰) [2]: increased sharply up to about 2 min after the administration of 1-^13C-aspartic acid, but thereafter decreased gradually up to 20 min

slope from 1 to 2 min after the administration [3]: 105.59 ‰/min
Δ^13C value (‰) at 5 min after the administration [3]: 168.18 ‰
slope from 1 to 2 min after the administration [4]: 69.88±11.51 ‰/min
Δ^13C value (‰) at 5 min after the administration [4]: 107.17±15.42 ‰
SMILES: NC(=O)CC[C@H](N)[13C](=O)O [1-^13C-glutamine]
time course of Δ^13C values (‰) (diabetic rats, 20 mg/kg from the femoral vein, Example 18): increased sharply up to about 3 min after the administration, but thereafter decreased gradually up to 20 min
time course of Δ^13C values (‰) [4]: increased sharply up to about 3 min after the administration of 1-^13C-glutamine, and thereafter increased gradually up to 20 min

Δ^13C value (‰) at 7 min after the administration [5]: 156.62±10.83 ‰
Δ^13C value (‰) at 7 min after the administration [6]: 119.06±12.19 ‰
SMILES: NC[13C](=O)O [1-^13C-glycine]
time course of Δ^13C values (‰) [5]: increased sharply up to about 5 min after the administration, but thereafter decreased gradually up to 20 min
time course of Δ^13C values (‰) [6]: increased sharply up to about 5 min after the administration of 1-^13C-glycine, remained at an almost constant level up to about 12 min, but thereafter decreased gradually up to 20 min

slope from 2 to 5 min after the administration [7]: 56.21±2.09 ‰/3 min
Δ^13C value (‰) at 5 min after the administration [7]: 83.92±5.53 ‰
slope from 2 to 5 min after the administration [8]: 33.21±2.44 ‰/3 min
time course of Δ^13C values (‰) [8]: continued increasing up to 20 min
Δ^13C value (‰) at 5 min after the administration [8]: 46.98±3.24 ‰
SMILES: CC[C@H](C)[C@H](N)[13C](=O)O [1-^13C-isoleucine]
time course of Δ^13C values (‰) [7]: increased sharply up to about 9 min after the administration, but thereafter remained at an almost constant level up to 20 min

slope from 1 to 4 min after the administration [9]: 158.13±41.24 ‰/3 min
Δ^13C value (‰) at 10 min after the administration [9]: 228.08±43.45 ‰
slope from 1 to 4 min after the administration [10]: 84.17±11.38 ‰/3 min
Δ^13C value (‰) at 10 min after the administration [10]: 127.79±10.69 ‰
SMILES: N[C@@H](CO)[13C](=O)O [1-^13C-serine]
time course of Δ^13C values (‰) [9]: increased sharply up to about 8 min after the administration, but thereafter decreased gradually up to 20 min
time course of Δ^13C values (‰) [10]: increased up to about 8 min after the administration of 1-^13C-serine, and thereafter remained at an almost constant level

slope from 1 to 2 min after the administration [13]: 38.50±2.33 ‰/min
Δ^13C value (‰) at 2 min after the administration [13]: 42.87±2.09 ‰
slope from 1 to 2 min after the administration [14]: 65.72±10.66 ‰/min
Δ^13C value (‰) at 2 min after the administration [14]: 78.97±13.98 ‰
SMILES: N[C@@H](CS)[13C](=O)O [1-^13C-cysteine]

slope from 2 to 4 min after the administration [15]: 38.55±3.15 ‰/2 min
Δ^13C value (‰) at 5 min after the administration [15]: 73.54±7.30 ‰
slope from 2 to 4 min after the administration [16]: 24.17±2.32 ‰/2 min
Δ^13C value (‰) at 5 min after the administration [16]: 45.99±5.62 ‰
SMILES: CC(C)[C@H](N)[13C](=O)O [1-^13C-valine]
time course of Δ^13C values (‰) [15]: sharply increased up to about 6 min after the administration of 1-^13C-valine, and thereafter increased gradually up to 20 min
time course of Δ^13C values (‰) [16]: sharply increased up to about 6 min after the administration of 1-^13C-valine, and thereafter increased gradually up to 20 min

Source: patent US6509002B1, “Diagnostic agent for diabetes” (priority 1997, dated 2003)
